Test results from BigSolDB 2.1.

O=C1CCCC(=O)O1
Conditions | solubility (mole fraction)
in acetic acid, 279.65 K | 0.0783
in acetic acid, 282.25 K | 0.0967
in acetic acid, 284.55 K | 0.119
in acetic acid, 287.05 K | 0.152
in acetic acid, 289.55 K | 0.183
in acetic acid, 291.95 K | 0.223
in acetic acid, 294.25 K | 0.27
in acetic acid, 296.65 K | 0.323
in acetic acid, 299.15 K | 0.376
in acetic acid, 302.15 K | 0.436
in acetic acid, 304.05 K | 0.502
in acetic acid, 306.25 K | 0.557
in acetyl acetate, 278.45 K | 0.153
in acetyl acetate, 282.45 K | 0.205
in acetyl acetate, 283.85 K | 0.231
in acetyl acetate, 285.45 K | 0.259
in acetyl acetate, 287.65 K | 0.299
in acetyl acetate, 290.55 K | 0.342
in acetyl acetate, 293.05 K | 0.388
in acetyl acetate, 296.95 K | 0.437
in acetyl acetate, 300.25 K | 0.502
in acetyl acetate, 304.05 K | 0.562
in tetrachloromethane, 282.25 K | 0.00064
in tetrachloromethane, 285.45 K | 0.00073
in tetrachloromethane, 288.05 K | 0.00097
in tetrachloromethane, 291.15 K | 0.00141
in tetrachloromethane, 293.95 K | 0.00182
in tetrachloromethane, 295.95 K | 0.00225
in tetrachloromethane, 300.25 K | 0.00268
in tetrachloromethane, 303.25 K | 0.00321
in tetrachloromethane, 306.25 K | 0.0039
in tetrachloromethane, 309.85 K | 0.00487
in tetrachloromethane, 312.95 K | 0.00544
in tetrachloromethane, 315.55 K | 0.00586
in tetrachloromethane, 318.25 K | 0.00619
in tetrachloromethane, 320.45 K | 0.00639
